From patent US9856218B2, “Inhibitors of PRMT5 and methods of their use” (Ohio State Innovation Foundation, priority 2013, dated 2018)

Experiments:
[1] = tested on: Mantle cell lymphoma cell line Jeko; test: MTS anti-proliferation assay; format: cell-based
Description: MTS proliferation assays were performed according the CellTiter 96™ Aqueous Cell Proliferation Assay Technical Bulletin (Promega, Madison, Wis.). 5×10^5 cells were plated in each well of a 96-well plate at 37° C. and assayed for proliferation at 24, 48, and 72 hr. Proliferation signal at 50% of control was used as IC50 for growth.
(§1) Following the synthesis of 14 compounds, the anti-proliferation and pro-apoptotic activities of those compounds was evaluated in Mantle cell lymphoma cell line Jeko. Replicate cultures of Jeko were incubated in DMSO and the compounds for 24, 48 and 72 hours. FITC-Annexin V-PI stained flow cytometry was used to detect the apoptotic population of cells (Table 4).

[2] = 24 hr Quick MTD test, one mouse for each dose; format: in vivo
Description: (§2) Controlled shRNA depletion was evaluated in a murine lymphoma model (Eμ-BRD2 (Chung, J., et al. (2013) J. Biological Chemistry 288, 35534-35547)) and human xenograft model of glioblastoma (Yan, F., et al (2014) Cancer Research In Press). Referring to FIG. 62A, controlled expression of a PRMT5 shRNA (solid line) but not control shRNA (dashed line) leads to 100% survival of mice engrafted primary DLBCL tumor cells. […] The maximum tolerated dose (MTD, single dose) was identified at 50 mg/kg (see Table 11 below). A sub-toxic dose (25 mg/kg) was used to treat FcMCL mice. Control mice developed peripheral blood and lymph node tumor burden starting day 20 post-engraftment.

[3] = molecular target: T1, recombinant human PRMT5/MEP50 enzyme (Homo sapiens, UniProt O14744); test: Epigenase PRMT methyltransferase (type II-specific) activity/inhibition assay kit; format: biochemical; conditions: 25 ng recombinant human PRMT5/MEP50 per reaction; read-out: Inhibition of PRMT5 mediated H4R3 methylation (IC50)
T1 construct: purchased BPS Bioscience
Description: The inhibition of PRMT5 mediated H4R3 methylation result was obtained with Epigenase™ PRMT methyltransferase (type II-specific) activity/inhibition assay kit. 25 ng recombinant human PRMT5/MEP50 enzyme (purchased from BPS Bioscience) was used in each reaction.

[4] = MTD study, four mice each dose; format: in vivo; conditions: mouse, in vivo, ip
Description: as §2

[5] = In vivo pharmacokinetics, plasma concentration; set-up: species or system Mouse; conditions: mouse, in vivo
Excerpt: Pharmacokinetic data of compounds HLCL-7, HLCL-61, and HLCL-66 taken from an in vivo study is illustrated in Table 10. […]

[6] = tested on: Mantle cell lymphoma cell line Jeko; test: Induction of apoptosis, FITC-Annexin V-PI flow cytometry; format: cell-based
Description: Analysis by flow cytometry. Cell viability was also measured by flow cytometry at 24 and 48 hr using annexin-V-FITC and propidium iodide (PI) according to the manufacturer's instructions (BD Biosciences).
as §1

HNSCC tumor cells = test: Proliferation of HNSCC tumor cells; format: cell-based; conditions: FIG. 58
OG2 cells = test: Viability/apoptosis assay alone and in combination with temozolomide; format: cell-based; conditions: in combination with TMZ, FIG. 13
Excerpt: OG2 cells are tumor cells derived from glioblastoma primary tumors.

CAL-27 cell line = test: Migration scratch assay; format: cell-based; conditions: CAL-27, 16 h and 24 h
Description: Referring to FIG. 60, PRMT5 and squamous cell carcinoma migration in response to HLCL-66 is illustrated. Migration was performed as previously described (Nowicki, M. O., et al. (2008) Neuro. Oncol. 10, 690-699). Briefly, a migration scratch assay was performed with CAL-27 cell line treated with HLCL-66 for 0, 16, and 24 hours.

multiple cell lines = test: Proliferation of multiple cell lines (FIG. 59); format: cell-based; conditions: FIG. 59A-E
Description: Proliferation of multiple cell lines was evaluated for CMPD 5, CMPD 7, HLCL61, HLCL-65, and HLCL-66 (FIG. 59A-E).

T1 sequence (O14744 2-637 limits assumed): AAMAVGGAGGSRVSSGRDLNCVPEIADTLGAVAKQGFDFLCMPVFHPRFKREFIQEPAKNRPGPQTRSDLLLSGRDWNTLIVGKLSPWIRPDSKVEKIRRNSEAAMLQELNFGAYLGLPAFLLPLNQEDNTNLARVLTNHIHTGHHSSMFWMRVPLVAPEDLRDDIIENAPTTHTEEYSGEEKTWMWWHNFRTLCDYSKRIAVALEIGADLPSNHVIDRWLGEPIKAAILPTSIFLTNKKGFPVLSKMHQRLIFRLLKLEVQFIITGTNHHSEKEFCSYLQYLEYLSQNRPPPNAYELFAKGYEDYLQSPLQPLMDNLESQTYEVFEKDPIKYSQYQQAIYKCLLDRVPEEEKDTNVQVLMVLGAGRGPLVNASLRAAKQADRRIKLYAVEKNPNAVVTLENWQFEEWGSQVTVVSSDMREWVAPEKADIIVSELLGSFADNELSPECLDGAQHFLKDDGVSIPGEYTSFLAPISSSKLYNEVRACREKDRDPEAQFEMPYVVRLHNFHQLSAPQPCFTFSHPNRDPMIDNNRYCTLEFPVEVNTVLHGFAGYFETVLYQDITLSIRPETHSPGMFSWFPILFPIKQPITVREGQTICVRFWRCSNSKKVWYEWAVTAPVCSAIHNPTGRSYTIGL
T1 sequence (Q9BQA1 2-342 partner limits assumed): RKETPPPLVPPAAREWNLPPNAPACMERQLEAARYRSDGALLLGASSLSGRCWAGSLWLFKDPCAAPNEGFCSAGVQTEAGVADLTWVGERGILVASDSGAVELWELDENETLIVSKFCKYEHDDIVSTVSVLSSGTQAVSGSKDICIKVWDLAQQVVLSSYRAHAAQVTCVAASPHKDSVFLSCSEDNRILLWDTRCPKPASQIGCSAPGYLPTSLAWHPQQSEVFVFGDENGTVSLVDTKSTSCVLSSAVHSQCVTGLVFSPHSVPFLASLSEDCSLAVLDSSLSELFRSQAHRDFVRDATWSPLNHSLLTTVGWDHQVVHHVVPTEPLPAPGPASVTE

CCn1c2ccccc2c2cc(NC(=N)Nc3ccc(S(C)(=O)=O)cc3)ccc21 [HLCL-7]
IC50 ([1]; 24 h incubation): 32 µM | IC50 ([1]; 48 h incubation): 26 µM | IC50 ([1]; 72 h incubation): 13 µM | survival after dosing ([2]; IV-2.5 mg/kg, one mouse): Alive 24 hr after | survival after dosing ([2]; mouse, in vivo, ip, 50 mg/kg, 24 h): Alive 24 hr after | survival after dosing ([2]; mouse, in vivo, ip, 100 mg/kg, 24 h): Dead within 1 hr after | survival after dosing ([2]; mouse, in vivo, ip, 200 mg/kg, 24 h): Dead within 1 hr after | survival after dosing ([2]; mouse, in vivo, iv, 5 mg/kg, 24 h): Alive 24 hr after | clinical signs after dosing (slow moving) ([2]; mouse, in vivo, iv, 10 mg/kg): dosing but slow | survival after dosing ([2]; mouse, in vivo, iv, 10 mg/kg, 24 h): Alive 24 hr after | survival after dosing ([2]; mouse, in vivo, iv, 20 mg/kg): Dead instantly after | IC50 [3]: 7 µM | survival 24 hr after dosing ([4]; 5 mg/kg, 24 h): Alive 24 hr after | condition within 1 hr after dosing (alive but slow moving) ([4]; 50 mg/kg): Alive within 1 hr after | mice lethargic and slow moving 24 hr after dosing ([4]; 50 mg/kg, 24 h): after dosing, 1 out 4 | survival 24 hr after dosing ([4]; 50 mg/kg, 24 h): moving. Alive 24 hr | concentration at 0.08 h ([5]; ip, 25 mg/kg): 7570 nM | concentration at 0.17 h ([5]; ip, 25 mg/kg): 886 nM | concentration at 0.33 h ([5]; ip, 25 mg/kg): 7540 nM | concentration at 0.5 h ([5]; ip, 25 mg/kg): 7480 nM | concentration at 1 h ([5]; ip, 25 mg/kg): 4910 nM | concentration at 2 h ([5]; ip, 25 mg/kg): 7680 nM | concentration at 4 h ([5]; ip, 25 mg/kg): 4130 nM | concentration at 6 h ([5]; ip, 25 mg/kg): 2540 nM | concentration at 8 h ([5]; ip, 25 mg/kg): 2790 nM | concentration at 24 h ([5]; ip, 25 mg/kg): 1.35 nM | concentration at 0.08 h ([5]; iv, 5 mg/kg): 3240 nM | concentration at 0.17 h ([5]; iv, 5 mg/kg): 3070 nM | concentration at 0.33 h ([5]; iv, 5 mg/kg): 1500 nM | concentration at 0.5 h ([5]; iv, 5 mg/kg): 911 nM | concentration at 1 h ([5]; iv, 5 mg/kg): 601 nM | concentration at 2 h ([5]; iv, 5 mg/kg): 507 nM | concentration at 4 h ([5]; iv, 5 mg/kg): 200 nM | concentration at 6 h ([5]; iv, 5 mg/kg): 76.2 nM | concentration at 8 h ([5]; iv, 5 mg/kg): 77.1 nM | concentration at 24 h ([5]; iv, 5 mg/kg): 1.38 nM | EC50 ([6]; 24 h): 32 µM | EC50 ([6]; 48 h): 26 µM | proliferation of HNSCC tumor cells (HNSCC tumor cells): inhibit proliferation in a dose-dependent manner

CCn1c2ccccc2c2cc(/C=C/C(=O)c3ccccc3OC)ccc21 [HLCL-66]
IC50 ([1]; 24 h incubation): 1.9 µM | IC50 ([1]; 48 h incubation): 0.4 µM | IC50 ([1]; 72 h incubation): 0.2 µM | IC50 [3]: 26 µM | induction of apoptosis in combination (OG2 cells): synergistic | gap closure (migration) (CAL-27 cell line): affected in a dose-response fashion | potency, proliferation of multiple cell lines (multiple cell lines): low micromolar range | EC50 ([6]; 24 h): 1.4 µM | EC50 ([6]; 48 h): 0.5 µM
